{
  "source": "patent US20100093847A1",
  "about": "“ANTI-OBESITY ACTIVE AGENT AND ANTI-OBESITY METHOD” (priority 2005, published 2010)",
  "key": {"KK-Ay mice": {"system": "KK-Ay mice", "test": "Animal experiments: KK-Ay mice fed feed containing fucoxanthinol", "assay_type": "in vivo", "procedure": "Animals and Feed: For the animal experiments, KK-Ay mice (female; 3-week-old) were used. Feed for the experiments was prepared in accordance with AIN-93G composition (formulation). Amount of lipid in the feed was 13.5%. In the case where fucoxanthinol was added, 0.2% of the lipid in the feed was replaced with fucoxanthinol. After the preparation, the feed was immediately vacuum-packed and stored at −20° C. or lower until feeding.\nBreeding and Analysis: Preliminary Breeding was conducted for a week using the feed for the control group, and individuals which grew with no problem were divided into groups each consisting of 6 mice in such a manner that there were no substantial unevennesses in body weight among the groups. With respect to each of the groups, two mice were housed and bred in each plastic cage spread with sterilized wood chips to cover the floor. In the breeding cage, temperature and humidity were kept at 23±1° C. and 50%, respectively, and each of light and dark periods was 12 hours. The mice were allowed to freely take (ingest) the feed and water, and the breeding with each of the feeds for the experiments was carried out for 24 days.\nAfter termination of the feeding period, the mice were fasted for 12 hours. Thereafter, blood samples were collected from neck vessels in the presence of EDTA under anesthesia with (ethyl) ether. After the collection of blood samples, organs were immediately harvested and washed well with physiological saline to sufficiently clear blood therefrom. Livers were weighed and then stored at −40° C. or lower until subjected to analyses. Leptin concentrations and blood-sugar levels in blood were measured using a commercially available kit."}, "3T3-L1 preadipocytes": {"system": "3T3-L1 preadipocytes", "test": "Quantitative determination of intracellular lipids with Oilred O during differentiation of 3T3-L1 preadipocytes to adipocytes", "assay_type": "cell-based", "conditions": "FIG. 3 and FIG. 4; added to culture medium during differentiation induction", "procedure": "(§1) Cell Culture: 3T3-L1 preadipocytes were incubated using DMRM culture medium containing 10% (by volume) of FBS at 37° C. in the presence of CO2 (5%). In this connection, as the FBS, one which had been inactivated at 56° C. for 30 minutes was used. As the cells, those which were unused (naïve) and which had been kept in liquid nitrogen were used in each experiment. On a 96 well microplate, 5×10^4 cells of the 3T3-L1 preadipocytes were seeded per well and pre-incubated for 48 hours.\nThen, the culture medium was removed from the wells, and DMEM culture medium containing insulin (10 μg/ml), dexametazone (0.25 μg/ml) and IBMX (0.5 mM) was added to the wells, and incubation was further performed for 48 hours. Thereafter, differentiation to adipocytes was induce while repeating medium replacement at intervals of 4 days with the use of DMEM culture medium containing 5 μg/ml of insulin only. […]\nQuantitative Determination of Intracellular Lipids with Oilred O: The cells incubated in the 96 well microplate were immobilized with formalin, and then an oilred O solution was added thereto to stain lipids in the cells. […] Subsequently, isopropanol was added to each of the wells to elute the pigment (colorant), and absorbance, i.e., optical density at 490 nm was measured using a microplate reader."}, "[1]": {"system": "GPDH (glycerol-3-phosphate-dehydrogenase)", "test": "Measurement of GPDH activity in differentiating 3T3-L1 preadipocytes", "assay_type": "cell-based", "conditions": "FIG. 5; compared with no addition", "procedure": "as §1\nThen, the culture medium was removed from the wells, and DMEM culture medium containing insulin (10 μg/ml), dexametazone (0.25 μg/ml) and IBMX (0.5 mM) was added to the wells, and incubation was further performed for 48 hours. Thereafter, differentiation to adipocytes was induce while repeating medium replacement at intervals of 4 days with the use of DMEM culture medium containing 5 μg/ml of insulin only. In this procedure, fucoxanthin was added to the culture medium to examine influence thereof on the differentiation induction.\nMeasurement of GPDH Activity: For measurement of GPDH (glycerol-3-phosphate-dehydrogenase) activity, a GDP H activity measuring kit (manufactured by Hokudo Co., Ltd.) was used. Specifically, 3T3-L1 preadipocytes were pre-incubated on a 24 well microplate) for 48 hours, and then differentiation to adipocytes was induced in the same manner as described above. […]"}, "[2]": {"system": "large intestine cancer cells", "conditions": "according to Non-Patent Document 1; cited from earlier work"}, "adipocytes (fat cells)": {"system": "adipocytes (fat cells)", "conditions": "according to Non-Patent Document 2; cited from earlier work"}, "[3]": {"conditions": "24 days feeding, versus control group"}, "[4]": {"conditions": "after 24 days feeding, versus control group"}},
  "data": [
    {"compound": "C\\C(C=C=C1C(C)(C)C[C@H](O)C[C@@]1(C)O)=C/C=C/C(C)=C/C=C/C=C(C)/C=C/C=C(\\C)C(=O)C[C@@]12O[C@]1(C)C[C@@H](O)CC2(C)C", "note": "[fucoxanthinol]", "values": [
      {"measurement": "weight of visceral fat per 100 g of body weight", "setting": "KK-Ay mice; FIG. 6, 0.2% of feed lipid replaced, 24 days, versus control group", "value": "significantly reduced"},
      {"measurement": "leptin concentration in blood", "setting": "KK-Ay mice; FIG. 7, 24 days feeding, versus control group", "value": "significantly reduced"},
      {"measurement": "blood sugar level", "setting": "KK-Ay mice; FIG. 8, 24 days feeding, versus control group", "value": "reduced"},
      {"measurement": "fat (lipid) accumulation associated with differentiation of 3T3-L1 preadipocytes to adipocytes (optical density at 490 nm, Oilred O)", "setting": "3T3-L1 preadipocytes", "value": "markedly controlled"},
      {"measurement": "relative GPDH activity (relative amount of adipocytes, preadipocytes = 1)", "setting": "[1]", "value": "lowered"}
    ]},
    {"compound": "fucoxanthin", "values": [
      {"measurement": "amount of feed intake", "setting": "KK-Ay mice; [3]", "value": "no significant differences"},
      {"measurement": "increase in body weight", "setting": "KK-Ay mice; [3]", "value": "no significant differences"},
      {"measurement": "weight of hepatic lipid", "setting": "KK-Ay mice; [4]", "value": "no significant differences"},
      {"measurement": "weight of liver", "setting": "KK-Ay mice; [4]", "value": "no significant differences"},
      {"measurement": "weight of small intestine", "setting": "KK-Ay mice; [4]", "value": "no significant differences"},
      {"measurement": "abnormalities in feed intake, glossiness of hair or action", "setting": "KK-Ay mice; breeding period", "value": "no abnormalities"},
      {"measurement": "fat (lipid) accumulation associated with differentiation of 3T3-L1 preadipocytes to adipocytes (optical density at 490 nm, Oilred O)", "setting": "3T3-L1 preadipocytes", "value": "apparently lower than that of fucoxanthinol"},
      {"measurement": "antiproliferative activity / proliferation of large intestine cancer cells", "setting": "[2]", "value": "far stronger antiproliferative activity than that of troglytazone"},
      {"measurement": "differentiation suppressing activity on adipocytes", "setting": "adipocytes (fat cells)", "value": "has differentiation suppressing activity on adipocytes"},
      {"measurement": "relative GPDH activity (relative amount of adipocytes, preadipocytes = 1)", "setting": "[1]", "value": "no significant differences"}
    ]}
  ]
}
